Reference: US11382956B2, “Amylin analogues” (Zealand Pharma A/S, priority 2016, dated 2022)
Numbered stars: 1 amine (or outer) side, 2 acyl side, 3 side chain; on linkers, the order of the positions; unused ones are H or OH. Bridge positions count the residues as written; N and C are the ends. Square brackets hold non-standard residues; d marks the D form. Peptide text beside a SMILES is read from it. * marks the point of attachment. C20 diacid = O=C(O)CCCCCCCCCCCCCCCCCCC(=O)*; γGlu = O=C(O)[C@H](CCC(=O)[*:2])N[*:1]; Hyp = O=C(O)[C@@H]1C[C@@H](O)CN1; NMeI = CC[C@H](C)[C@H](NC)C(=O)O; Aad = N[C@@H](CCCC(=O)O)C(=O)O; Dap = NC[C@H](N)C(=O)O; Sar = CNCC(=O)O

Assays:
[1] = target: T1, recombinant human amylin 3 receptor (hAMYR3) (Homo sapiens, UniProt O60896+P30988); test: hAMYR3 cAMP assay (AlphaScreen) in 1321N1 cells; assay type: cell-based; conditions: cAMP formation, 45 min stimulation
T1 construct: host or cells: human astrocytoma cell line 1321N1
T1 sequence (P30988 25-474): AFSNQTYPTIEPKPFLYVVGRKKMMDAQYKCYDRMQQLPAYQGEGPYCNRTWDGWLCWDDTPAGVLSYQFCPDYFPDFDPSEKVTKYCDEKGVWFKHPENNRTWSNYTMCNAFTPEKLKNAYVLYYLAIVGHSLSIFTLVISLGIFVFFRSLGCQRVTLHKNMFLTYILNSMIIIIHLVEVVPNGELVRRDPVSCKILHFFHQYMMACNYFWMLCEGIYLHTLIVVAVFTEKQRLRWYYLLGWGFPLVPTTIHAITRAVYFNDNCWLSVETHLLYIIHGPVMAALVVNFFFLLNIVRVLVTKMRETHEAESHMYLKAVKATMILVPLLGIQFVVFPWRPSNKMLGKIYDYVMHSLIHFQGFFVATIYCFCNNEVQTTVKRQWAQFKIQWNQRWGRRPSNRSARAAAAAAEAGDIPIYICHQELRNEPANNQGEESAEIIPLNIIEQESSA
T1 sequence (O60896 24-148 partner): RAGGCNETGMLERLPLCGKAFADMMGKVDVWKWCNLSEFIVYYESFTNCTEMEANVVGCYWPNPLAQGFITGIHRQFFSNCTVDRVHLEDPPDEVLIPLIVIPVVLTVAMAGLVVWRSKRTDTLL
Procedure, shortened: (§1)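 EC50 values come from curve fits over at least 7 peptide concentrations, with cAMP read by AlphaScreen competition after 1 h in the dark. Cells were 1321N1 lines carrying human calcitonin receptor, with RAMP3 co-expressed for AMY3, treated 45 min at room temperature in the presence of IBMX.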

[2] = target: T2, recombinant human calcitonin receptor (hCT-R) (Homo sapiens, UniProt P30988); test: hCT-R cAMP assay (AlphaScreen) in 1321N1 cells; assay type: cell-based; conditions: cAMP formation, 45 min stimulation
T2 construct: host or cells: human astrocytoma cell line 1321N1
T2 sequence (P30988 25-474): T1 sequence (P30988 25-474)
Procedure, shortened: as §1

[3] = Chemical stability, alternative analysis in MilliQ water with pH adjusted, 40° C. (RP-HPLC); assay type: physicochemical
Procedure: In an alternative analysis, peptides were dissolved in MilliQ water and pH adjusted to 4.0, 7.5 or 9.0. Samples were placed in glass vials and incubated at 40° C. The samples were analyzed by RP-HPLC on a C8 column with gradient elution using a trifluoroacetic acid/acetonitrile/water eluent system. The area-percentage (area-%) of the main peak was determined by UV spectroscopy at 220 nm at each sampling time point.
The % degradation was calculated by subtracting the […].
The results of the chemical stability assessment after 8 days of incubation time are summarized as % degradation in Table 3 (below).

[4] = Assessment of physical stability: fibril formation by Thioflavin T fluorescence; assay type: physicochemical; parameters: key: FND = fibrillation not detected; FD = fibrillation detected; conditions: 1 mg/mL peptide
Procedure, shortened: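 Fibrillation detected (FD) means a significant rise in ThT fluorescence over 96 hours at 40° C, read at 10 min intervals each preceded by 300 s automixing. Samples: 1 mg/mL peptide, 40 μM ThT, in 50 mM phosphate or histidine (pH 7.0) or acetate (pH 4.0), triplicate.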

[5] = Effect on acute food intake and body weight in normal Sprague Dawley rats; assay type: in vivo, Sprague Dawley (SD) rats; conditions: Dose: 30 nmol/kg sc, vehicle-corrected
Excerpt: Sprague Dawley (SD) rats were obtained from Janvier Labs, France. The animals arrived at least 14 days before the study start to allow acclimatization to experimental conditions. From arrival and throughout the study, the rats were housed in groups of 2 to 4 (n=2-4) in a light-, temperature- and humidity-controlled room. Animals had access ad libitum to food (KLIBA 3430, Provimi Kliba AG, Switzerland) and water (domestic quality tap water) during the entire study. Per group 6-8 rats were included. A vehicle group and positive control group were included in each set of tests. […] Dosing volume was 2 ml/kg. Food intake was recorded online using an automated food intake system (HM02, MBRose, Denmark) for 4 days or manually at 0 h for a predose and then 24, 48, 72 and 96 h post dosing. Body weight was measured daily.
Statistical analyses were performed using GraphPad™ Prism version 7. The measured parameters were compared using two-way ANOVA followed by Dunnett's multiple comparison tests. Differences were considered statistically significant at p<0.05.

[6] = Assessment of chemical stability in 40 mM buffers at 40° C. (RP-HPLC); assay type: physicochemical; conditions: 1 mg/mL
Procedure, shortened: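 Degradation is the main-peak area-% at each time point minus that at t=0, measured by C8 reversed-phase HPLC (TFA/acetonitrile/water gradient, 220 nm). Incubation at 40° C for 3 or 14 days, 1 mg/mL peptide in 40 mM buffer at pH 4, 6 or 7.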

EC50 [1] | EC50 [2] | % degradation after 8 days at 40° C. pH4 ([3]; pH adjusted to 4.0, 8 days) | % degradation after 8 days at 40° C. pH7.5 ([3]; pH adjusted to 7.5, 8 days) | % degradation after 8 days at 40° C. pH9 ([3]; pH adjusted to 9.0, 8 days) | Fibrillation (in buffer) pH4 acetate ([4]; 50 mM acetate buffer pH 4.0, 96 hours at 40° C.) | Fibrillation (in buffer) pH7 histidine ([4]; 50 mM histidine buffer pH 7.0, 96 hours at 40° C.) | Fibrillation (in buffer) pH7 phosphate ([4]; 50 mM phosphate buffer pH 7.0, 96 hours at 40° C.) | % degradation after 72 h at 40° C. pH4 acetate ([6]; acetate buffer pH 4, 72 h) | % degradation after 72 h at 40° C. pH6 phosphate ([6]; phosphate buffer pH 6, 72 h) | % degradation after 72 h at 40° C. pH7 phosphate ([6]; phosphate buffer pH 7, 72 h) | SMILES | Body weight reduction in % at 48 h [5] | Food intake reduction in % at 48 h [5]
0.02 nM | 0.107 nM | 1.8% | 2.3% | 2.5% |  |  |  |  |  |  | CC[C@H](C)[C@@H](C(=O)N[C@@H](CC(C)C)C(=O)N[C@@H](CO)C(=O)N[C@@H](CO)C(=O)N[C@H](C(=O)N[C@@H](CCC(=O)O)C(=O)N[C@H](C(=O)NCC(=O)N[C@@H](CO)C(=O)N[C@@H](CC(N)=O)C(=O)N[C@H](C(=O)N1C[C@H](O)C[C@H]1C(N)=O)[C@@H](C)O)C(C)C)[C@@H](C)O)N(C)C(=O)[C@H](C)NC(=O)CN(C)C(=O)[C@H](Cc1ccccc1)NC(=O)[C@H](CO)NC(=O)[C@H](CO)NC(=O)[C@H](CCCNC(=N)N)NC(=O)[C@H](CCC(N)=O)NC(=O)[C@H](CC(C)C)NC(=O)[C@H](Cc1ccccc1)NC(=O)[C@H](Cc1c[nH]cn1)NC(=O)[C@H](C)NC(=O)[C@H](CC(C)C)NC(=O)[C@H](CCCNC(=N)N)NC(=O)[C@H](CCC(=O)O)NC(=O)[C@@H](NC(=O)[C@H](C)NC(=O)[C@@H]1CCCC(=O)NC[C@H](NC(=O)[C@H](CCCNC(=N)N)NC(=O)CC[C@H](NC(=O)CCCCCCCCCCCCCCCCCCC(=O)O)C(=O)O)C(=O)NCC(=O)N[C@@H]([C@@H](C)O)C(=O)N[C@@H](C)C(=O)N[C@@H]([C@@H](C)O)C(=O)N1)[C@@H](C)O [Compound 48, [19CD]-isoGlu-R-Dap()-GTAT-Aad()-ATERLAHFLQRSSF-Gly(Me)-A-Ile(Me)-LSSTEVGSNT-Hyp-NH2] ({C20 diacid-γGlu}-R[Dap]GTAT[Aad]ATERLAHFLQRSSF[Sar]A[NMeI]LSSTEVGSNT[Hyp]-NH2; lactam 2-7) |  | 
0.024 nM | 0.094 nM |  |  |  | FD | FND | FND | <1% | <1% | <1% | CC[C@H](C)[C@@H](C(=O)N[C@@H](CC(C)C)C(=O)N[C@@H](CO)C(=O)N[C@@H](CO)C(=O)N[C@H](C(=O)N[C@@H](CCC(=O)O)C(=O)N[C@H](C(=O)NCC(=O)N[C@@H](CO)C(=O)N[C@@H](CC(N)=O)C(=O)N[C@H](C(=O)N1C[C@H](O)C[C@H]1C(N)=O)[C@@H](C)O)C(C)C)[C@@H](C)O)N(C)C(=O)[C@H](C)NC(=O)CN(C)C(=O)[C@H](Cc1ccccc1)NC(=O)[C@H](CO)NC(=O)[C@H](CO)NC(=O)[C@H](CCCNC(=N)N)NC(=O)[C@H](CCC(N)=O)NC(=O)[C@H](CC(C)C)NC(=O)[C@H](Cc1ccccc1)NC(=O)[C@H](CCCC(=O)O)NC(=O)[C@H](C)NC(=O)[C@H](CC(C)C)NC(=O)[C@H](CCCNC(=N)N)NC(=O)[C@H](CCC(N)=O)NC(=O)[C@@H](NC(=O)[C@H](C)NC(=O)[C@@H]1CCCCNC(=O)C[C@H](NC(=O)[C@H](CCCCN)NC(=O)CC[C@H](NC(=O)CCCCCCCCCCCCCCCCCCC(=O)O)C(=O)O)C(=O)NCC(=O)N[C@@H]([C@@H](C)O)C(=O)N[C@@H](C)C(=O)N[C@@H]([C@@H](C)O)C(=O)N1)[C@@H](C)O [Compound 39, [19CD]-isoGlu-KD()GTATK()ATQRLA-Aad-FLQRSSF-Gly(Me)-Alle(Me)-LSSTEVGSNTHyp-NH2] ({C20 diacid-γGlu}-KDGTATKATQRLA[Aad]FLQRSSF[Sar]A[NMeI]LSSTEVGSNT[Hyp]-NH2; lactam 2-7) | 9.2% | 76%
